Target: T1, Kv10.1 (Eag1) (Homo sapiens, UniProt O95259)
T1 construct: gene KCNH1
T1 sequence (O95259 1-989): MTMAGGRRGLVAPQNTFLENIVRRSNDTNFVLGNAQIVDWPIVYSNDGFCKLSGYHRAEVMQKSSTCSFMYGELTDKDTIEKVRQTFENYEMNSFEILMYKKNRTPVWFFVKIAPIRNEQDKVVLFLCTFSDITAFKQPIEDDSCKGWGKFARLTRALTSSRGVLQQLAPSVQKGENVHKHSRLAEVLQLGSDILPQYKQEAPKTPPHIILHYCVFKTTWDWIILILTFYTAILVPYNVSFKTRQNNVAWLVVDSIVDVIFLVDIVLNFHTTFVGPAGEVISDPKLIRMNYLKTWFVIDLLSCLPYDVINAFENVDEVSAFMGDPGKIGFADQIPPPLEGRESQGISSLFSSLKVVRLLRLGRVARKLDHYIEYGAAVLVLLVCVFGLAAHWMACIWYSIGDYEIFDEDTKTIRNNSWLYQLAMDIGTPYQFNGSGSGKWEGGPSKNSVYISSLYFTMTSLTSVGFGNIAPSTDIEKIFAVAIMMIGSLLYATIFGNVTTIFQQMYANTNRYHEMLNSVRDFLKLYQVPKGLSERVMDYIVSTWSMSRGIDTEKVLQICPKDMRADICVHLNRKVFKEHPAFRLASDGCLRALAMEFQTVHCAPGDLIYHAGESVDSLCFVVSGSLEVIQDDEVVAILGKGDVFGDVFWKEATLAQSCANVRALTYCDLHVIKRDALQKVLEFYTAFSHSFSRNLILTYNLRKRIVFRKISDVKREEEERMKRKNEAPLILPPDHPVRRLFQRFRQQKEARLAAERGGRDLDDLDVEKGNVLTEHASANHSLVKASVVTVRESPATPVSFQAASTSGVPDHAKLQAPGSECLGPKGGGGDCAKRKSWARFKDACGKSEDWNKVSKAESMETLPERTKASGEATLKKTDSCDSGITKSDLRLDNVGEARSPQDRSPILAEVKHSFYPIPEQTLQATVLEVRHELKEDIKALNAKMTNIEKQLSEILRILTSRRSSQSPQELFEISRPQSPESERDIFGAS
Test: patch-clamp electrophysiology of HEK293 cells stably expressing Kv10.[…]; dose-response at +[…] mV
Assay type: cell-based

CCCCc1oc2ccccc2c1C(=O)c1cc(I)c(OCCNCC)c(I)c1 [desAd, desethylamiodarone]
Kd: 1.2 µM

From PMC10847070, “State-independent inhibition of the oncogenic Kv10.1 channel by desethylamiodarone, a comparison with amiodarone” (Pflugers Archiv, 2023)
